This passage reports IC50 results from patent publication US11034685B2, “Aminopyridine derivatives as TAM family kinase inhibitors” (SignalChem Lifesciences Corporation, priority 2013, dated 2021).

Common to all, as to format: biochemical
One experiment deals with T1, human Axl (473-end) (Homo sapiens, UniProt P30530).
T1 construct: GST (N); made in house; host or cells: Sf9 insect cells (baculovirus)
T1 sequence (P30530 473-894 limits assumed): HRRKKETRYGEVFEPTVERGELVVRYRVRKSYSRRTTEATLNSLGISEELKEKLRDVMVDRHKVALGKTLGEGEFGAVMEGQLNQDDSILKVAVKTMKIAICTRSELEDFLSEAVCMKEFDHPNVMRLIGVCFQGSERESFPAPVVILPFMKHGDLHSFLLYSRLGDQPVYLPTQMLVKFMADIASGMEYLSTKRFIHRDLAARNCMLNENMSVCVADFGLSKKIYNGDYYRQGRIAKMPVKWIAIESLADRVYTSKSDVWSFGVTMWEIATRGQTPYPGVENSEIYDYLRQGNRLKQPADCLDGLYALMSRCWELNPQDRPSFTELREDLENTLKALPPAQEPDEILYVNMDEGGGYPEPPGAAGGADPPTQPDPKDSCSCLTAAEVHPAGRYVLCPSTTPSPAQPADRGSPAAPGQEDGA
The experiment is described as follows: Kinase enzymatic activity assay ([33P]-ATP phosphate transfer), Axl. The note with it: inhibitory activity on Axl; class symbols. A digest of the protocol: (§1)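 Kinases were N-terminal GST-tagged constructs expressed in Sf9 cells, with poly(Glu:Tyr 4:1) as substrate. Reactions ran in MOPS buffer pH 7.2 with MgCl2 and [33P]-ATP (250 μM cocktail stock) for 30 min at room temperature. Filter-bound radioactivity gave % inhibition, and IC50 was taken from serial dilutions.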

In experiment [1] the target is T2, Recombinant human Tyro3 (455-end) (Homo sapiens, UniProt Q06418).
T2 construct: GST (N); made in house; host or cells: Sf9 insect cells (baculovirus)
T2 sequence (Q06418 455-890 limits assumed): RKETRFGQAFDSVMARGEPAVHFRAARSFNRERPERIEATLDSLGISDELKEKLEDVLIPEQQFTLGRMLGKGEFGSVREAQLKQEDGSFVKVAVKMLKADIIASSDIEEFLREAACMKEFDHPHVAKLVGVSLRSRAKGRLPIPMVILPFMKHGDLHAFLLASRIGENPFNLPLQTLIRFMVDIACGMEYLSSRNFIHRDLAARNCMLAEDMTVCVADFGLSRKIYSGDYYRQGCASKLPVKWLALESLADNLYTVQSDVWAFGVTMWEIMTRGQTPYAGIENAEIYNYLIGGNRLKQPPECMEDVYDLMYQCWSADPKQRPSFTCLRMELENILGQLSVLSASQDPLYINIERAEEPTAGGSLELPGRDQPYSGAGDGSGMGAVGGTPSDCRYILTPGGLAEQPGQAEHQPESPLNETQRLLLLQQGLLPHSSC
The experiment is described as follows: Kinase enzymatic activity assay ([33P]-ATP phosphate transfer), Tyro3. The note with it: inhibitory activity on Tyro3; class symbols. In a few lines:
as §1

The target of a further experiment is T3, human Mer (578-872) (Homo sapiens, UniProt Q12866).
T3 construct: GST (N); made in house; host or cells: Sf9 insect cells (baculovirus)
T3 sequence (Q12866 578-872): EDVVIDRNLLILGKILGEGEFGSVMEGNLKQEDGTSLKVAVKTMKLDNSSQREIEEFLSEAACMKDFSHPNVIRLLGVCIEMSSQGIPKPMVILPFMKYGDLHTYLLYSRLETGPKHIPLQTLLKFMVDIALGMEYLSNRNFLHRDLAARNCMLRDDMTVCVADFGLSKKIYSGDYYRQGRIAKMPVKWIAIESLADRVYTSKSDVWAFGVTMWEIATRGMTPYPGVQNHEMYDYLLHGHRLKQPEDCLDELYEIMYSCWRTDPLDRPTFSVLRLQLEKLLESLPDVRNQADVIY
Description: Kinase enzymatic activity assay ([33P]-ATP phosphate transfer), Mer. Particulars: inhibitory activity on Mer; class symbols. In a few lines: as §1

`Nc1ncc(-c2cnn(C3CCCCC3)c2)cc1-c1nnc(-c2c(Cl)cccc2Cl)o1` [5-(1-cyclohexyl-1H-pyrazol-4-yl)-3-(5-(2,6-dichlorophenyl)-1,3,4-oxadiazol-2-yl)pyridin-2-amine]: the IC50 (on human Axl (473-end); in experiment [1]; against human Mer (578-872)) was > 10000 nM throughout.
On to `Nc1ncc(-c2cnn(C3CCCCC3)c2)cc1-c1noc(-c2ccccc2)n1` [5-(1-cyclohexyl-1H-pyrazol-4-yl)-3-(5-phenyl-1,2,4-oxadiazol-3-yl)pyridin-2-amine], for which the 50% inhibitory concentration (IC50) (on human Axl (473-end); in experiment [1]; against human Mer (578-872)) was > 10000 nM throughout.
For `Nc1ncc(-c2cnn(C3CCCCC3)c2)cc1-c1nnc(-c2ccccc2)o1` [5-(1-cyclohexyl-1H-pyrazol-4-yl)-3-(5-phenyl-1,3,4-oxadiazol-2-yl)pyridin-2-amine], the IC50 (usually the midpoint of a concentration-inhibition curve) at human Axl (473-end) was 1000 to 10000 nM; in experiment [1], 1000 to 10000 nM; against human Mer (578-872), > 10000 nM.
With `Nc1ncc(-c2cnn(C3CCCCC3)c2)cc1-c1ccc(-c2ccccc2)o1` [5-(1-cyclohexyl-1H-pyrazol-4-yl)-3-(5-phenylfuran-2-yl)pyridin-2-amine], the 50% inhibitory concentration (IC50) (against human Axl (473-end); in experiment [1]; on human Mer (578-872)) was 1000 to 10000 nM each time.
As for `Nc1ncc(-c2cnn(C3CCCCC3)c2)cc1-c1cc(-c2ccccc2)on1` [5-(1-cyclohexyl-1H-pyrazol-4-yl)-3-(5-phenylisoxazol-3-yl)pyridin-2-amine], the IC50 (against human Axl (473-end); in experiment [1]; against human Mer (578-872)) was 1000 to 10000 nM in each case.
For the compound `Nc1ncc(-c2cnn(C3CCCCC3)c2)cc1-c1ncc(-c2ccccc2)o1` [5-(1-cyclohexyl-1H-pyrazol-4-yl)-3-(5-phenyloxazol-2-yl)pyridin-2-amine], the IC50 at human Axl (473-end) was 1000 to 10000 nM; in experiment [1], 1000 to 10000 nM; against human Mer (578-872), > 10000 nM.
With `Nc1ncc(-c2cnn(C3CCN(C(=O)C4CC4)CC3)c2)cc1-c1nc(-c2ccccc2)no1` [(4-(4-(6-amino-5-(3-phenyl-1,2,4-oxadiazol-5-yl)pyridin-3-yl)-1H-pyrazol-1-yl)piperidin-1-yl)(cyclopropyl)methanone], the IC50 (at human Axl (473-end); in experiment [1]; against human Mer (578-872)) was 1000 to 10000 nM in each case.
As to `Nc1ncc(-c2cnn(C3CCN(C(=O)c4ccccc4)CC3)c2)cc1-c1nc(-c2ccccc2)no1` [(4-(4-(6-amino-5-(3-phenyl-1,2,4-oxadiazol-5-yl)pyridin-3-yl)-1H-pyrazol-1-yl)piperidin-1-yl)(phenyl)methanone], the IC50 (on human Axl (473-end); in experiment [1]; on human Mer (578-872)) was 1000 to 10000 nM throughout.
For `Nc1ncc(-c2cnn(C3CCN(C(=O)C4CC4)CC3)c2)cc1-c1nnc(-c2c(Cl)cccc2Cl)o1` [(4-(4-(6-amino-5-(5-(2,6-dichlorophenyl)-1,3,4-oxadiazol-2-yl)pyridin-3-yl)-1H-pyrazol-1-yl)piperidin-1-yl)(cyclopropyl)methanone], the concentration for half-maximal inhibition (IC50) against human Axl (473-end) is < 500 nM; in experiment [1], < 500 nM; against human Mer (578-872), 1000 to 10000 nM.
Consider `Nc1ncc(-c2cnn(C3CCN(C(=O)c4ccccc4)CC3)c2)cc1-c1nnc(-c2c(Cl)cccc2Cl)o1` [(4-(4-(6-amino-5-(5-(2,6-dichlorophenyl)-1,3,4-oxadiazol-2-yl)pyridin-3-yl)-1H-pyrazol-1-yl)piperidin-1-yl)(phenyl)methanone], for which the 50% inhibitory concentration (IC50) (against human Axl (473-end); in experiment [1]; on human Mer (578-872)) was < 500 nM each time.
Regarding `Nc1ncc(-c2cnn(C3CCN(C(=O)c4ccc(F)cc4)CC3)c2)cc1-c1ncc(-c2cccc(Cl)c2)o1` [(4-(4-(6-amino-5-(5-(3-chlorophenyl)oxazol-2-yl)pyridin-3-yl)-1H-pyrazol-1-yl)piperidin-1-yl)(4-fluorophenyl)methanone], the IC50 on human Axl (473-end) was < 500 nM; in experiment [1], < 500 nM; at human Mer (578-872), 1000 to 10000 nM.
For `Nc1ncc(-c2cnn(C3CCN(C(=O)C4CC4)CC3)c2)cc1-c1ncc(-c2cccc(Cl)c2)o1` [(4-(4-(6-amino-5-(5-(3-chlorophenyl)oxazol-2-yl)pyridin-3-yl)-1H-pyrazol-1-yl)piperidin-1-yl)(cyclopropyl)methanone], the half-inhibitory concentration (IC50) on human Axl (473-end) was < 500 nM; in experiment [1], 500 to 1000 nM; against human Mer (578-872), 1000 to 10000 nM.
For `Nc1ncc(-c2cnn(C3CCN(C(=O)C4CC4)CC3)c2)cc1-c1ncc(-c2ccc(Cl)cc2)o1` [(4-(4-(6-amino-5-(5-(4-chlorophenyl)oxazol-2-yl)pyridin-3-yl)-1H-pyrazol-1-yl)piperidin-1-yl)(cyclopropyl)methanone] the same measures were < 500 nM, < 500 nM and > 10000 nM.
Taken in the same sequence, the figures for `Nc1ncc(-c2cnn(C3CCN(C(=O)c4ccccc4)CC3)c2)cc1-c1ncc(-c2ccc(Cl)cc2)o1` [(4-(4-(6-amino-5-(5-(4-chlorophenyl)oxazol-2-yl)pyridin-3-yl)-1H-pyrazol-1-yl)piperidin-1-yl)(phenyl)methanone] were < 500 nM, < 500 nM and 1000 to 10000 nM.
For `CC(C)(C)OC(=O)N1CCC(n2cc(-c3cnc(N)c(-c4nnc(-c5nc(C(F)(F)F)cs5)o4)c3)cn2)CC1` [tert-butyl 4-(4-(6-amino-5-(5-(4-(trifluoromethyl)-thiazol-2-yl)-1,3,4-oxadiazol-2-yl)pyridin-3-yl)-1H-pyrazol-1-yl)piperidine-1-carboxylate] the same measures were < 500 nM, 1000 to 10000 nM and > 10000 nM.
In the case of `CC(C)(C)OC(=O)N1CCC(n2cc(-c3cnc(N)c(-c4ncc(-c5ccc(Cl)cc5)o4)c3)cn2)CC1` [tert-butyl 4-(4-(6-amino-5-(5-(4-chlorophenyl)oxazol-2-yl)pyridin-3-yl)-1H-pyrazol-1-yl)piperidine-1-carboxylate], the concentration for half-maximal inhibition (IC50) against human Axl (473-end) is 500 to 1000 nM; in experiment [1], 1000 to 10000 nM; against human Mer (578-872), 1000 to 10000 nM.
Turning to `CC(C)(C)OC(=O)N1CCC(n2cc(-c3cnc(N)c(-c4nnc(-c5ccc(F)cc5)o4)c3)cn2)CC1` [tert-butyl 4-(4-(6-amino-5-(5-(4-fluorophenyl)-1,3,4-oxadiazol-2-yl)pyridin-3-yl)-1H-pyrazol-1-yl)piperidine-1-carboxylate], the IC50 (at human Axl (473-end); in experiment [1]; against human Mer (578-872)) was 1000 to 10000 nM throughout.
Consider `CC(C)(C)OC(=O)N1CCC(n2cc(-c3cnc(N)c(-c4nnc(CC5CC5)o4)c3)cn2)CC1` [tert-butyl 4-(4-(6-amino-5-(5-(cyclopropylmethyl)-1,3,4-oxadiazol-2-yl)pyridin-3-yl)-1H-pyrazol-1-yl)piperidine-1-carboxylate], for which the IC50 was < 500 nM at human Axl (473-end), 1000 to 10000 nM in experiment [1] and 500 to 1000 nM against human Mer (578-872).
Taken in the same sequence, the figures for `CC(C)(C)OC(=O)N1CCC(n2cc(-c3cnc(N)c(-c4nnc(-c5cnccn5)o4)c3)cn2)CC1` [tert-butyl 4-(4-(6-amino-5-(5-(pyrazin-2-yl)-1,3,4-oxadiazol-2-yl)pyridin-3-yl)-1H-pyrazol-1-yl)piperidine-1-carboxylate] were < 500 nM, 1000 to 10000 nM and 1000 to 10000 nM.
Taken in the same sequence, the figures for `CC(C)(C)OC(=O)N1CCC(n2cc(-c3cnc(N)c(-c4nnc(-c5ccccn5)o4)c3)cn2)CC1` [tert-butyl 4-(4-(6-amino-5-(5-(pyridin-2-yl)-1,3,4-oxadiazol-2-yl)pyridin-3-yl)-1H-pyrazol-1-yl)piperidine-1-carboxylate] were < 500 nM, 1000 to 10000 nM and 1000 to 10000 nM.
For `CC(C)(C)OC(=O)N1CCC(n2cc(-c3cnc(N)c(-c4nnc(-c5cccnc5)o4)c3)cn2)CC1` [tert-butyl 4-(4-(6-amino-5-(5-(pyridin-3-yl)-1,3,4-oxadiazol-2-yl)pyridin-3-yl)-1H-pyrazol-1-yl)piperidine-1-carboxylate] the same measures were 500 to 1000 nM, 1000 to 10000 nM and 1000 to 10000 nM.
